Data on three molecules can be found in ChEMBL document CHEMBL5053469, “Heterocyclic GTP Cyclohydrolase 1 Inhibitors For the Treatment of Pain” (2012).

A short description of experiment [1]: Inhibition of rat aortic smooth muscle cell GCH1 expressed in Escherichia coli assessed as reduction in 7,8-dihydroneoptrein 3'-triphosphate formation using GTP as substrate incubated for 1 hr by LC/MS assay.
Experiment [2] is described as follows: Inhibition of recombinant rat GCH1 assessed as reduction in 7,8-dihydroneoptrein 3'-triphosphate formation using GTP as substrate incubated for 15 mins by HPLC and fluorescence detection assay.

By IC50 is commonly meant the midpoint of a concentration-inhibition curve. In the case of `Nc1nc(O)c2nc(SCC(=O)Nc3ccc(S(=O)(=O)N4CCCCCC4)cc3)[nH]c2n1`, the half-maximal inhibitory concentration (IC50) in experiment [1] was found to be 127 µM.

In the case of `CC1CCCCC1NC(=O)CSc1nc2c(O)nc(N)nc2[nH]1` (stereo not drawn), the half-maximal inhibitory concentration (IC50) in experiment [1] is 89 µM.

As for `Nc1nc2[nH]c(S)nc2c(=O)[nH]1`, the half-maximal inhibitory concentration (IC50) in experiment [2] was found to be 24 µM.
